# Biological target: T1, human GABA A α5 receptor (α5β3γ2) (Homo sapiens, UniProt P18507+P31644)
# T1 construct: expressed in transfected cells; host or cells: HEK293 cells, transiently transfected; membranes prepared from cell pellets
# Assay: [3H]flumazenil competition binding assay, human GABA A α5β3γ2 receptors in HEK293 cells
# Conditions: human receptors transiently transfected in HEK293; 0.5 nM [3H]flumazenil; means of two determinations; read-out: hKi GABA A α5
# Description: Membrane Preparation and Binding Assay
# The affinity of compounds at GABA A receptor subtypes was measured by competition for [^3H]flumazenil (85 Ci/mmol; Roche) binding to HEK293 cells expressing rat (stably transfected) or human (transiently transfected) receptors of composition α1β3γ2, α2β3γ2, α3β3γ2 and α5β3γ2.
# Cell pellets were suspended in Krebs-tris buffer (4.8 mM KCl, 1.2 mM CaCl2, 1.2 mM MgCl2, 120 mM NaCl, 15 mM Tris; pH 7.5; binding assay buffer), homogenized by polytron for ca. 20 sec on ice and centrifuged for 60 min at 4° C. (50000 g; Sorvall, rotor: SM24=20000 rpm). The cell pellets were re-suspended in Krebs-tris buffer and homogenized by polytron for ca. 15 sec on ice. Protein was measured (Bradford method, Bio-Rad) and aliquots of 1 mL were prepared and stored at −80° C.
# Radioligand binding assays were carried out in a volume of […] (96-well plates) which contained […] of cell membranes, [^3H]flumazenil at a concentration of 1 nM for α1, α2 and α3 subunits and 0.5 nM for α5 subunits and the test compound in the range of […]. Nonspecific binding was defined by 10^−5 M diazepam and typically represented less than 5% of the total binding. Assays were incubated to equilibrium for 1 hour at 4° C. and harvested onto GF/C uni-filters (Packard) by filtration using a Packard harvester and washing with ice-cold wash buffer (50 mM Tris; pH 7.5). After drying, filter-retained radioactivity was detected by liquid scintillation counting. Ki values were calculated using Excel-Fit (Microsoft) and are the means of two determinations.
row,Structure (SMILES),Ki [nM]
1,"CCCCc1noc(C)c1COc1ccc(C(=O)NC(C)C)nn1 [Example 1, 6-(3-Butyl-5-methyl-isoxazol-4-ylmethoxy)-pyridazine-3-carboxylic acid isopropylamide]",12.8
2,"CCCCc1noc(C)c1COc1ccc(C(=O)NC2CCOCC2)nn1 [Example 2, 6-(3-Butyl-5-methyl-isoxazol-4-ylmethoxy)-pyridazine-3-carboxylic acid (tetrahydro-pyran-4-yl)-amide]",16.6
3,"CCCCc1noc(C)c1COc1ccc(C(=O)N[C@H](C)CO)nn1 [Example 3, 6-(3-Butyl-5-methyl-isoxazol-4-ylmethoxy)-pyridazine-3-carboxylic acid ((R)-2-hydroxy-1-methyl-ethyl)-amide]",7
4,"CCCCc1noc(C)c1COc1ccc(C(=O)NCC(C)(C)O)nn1 [Example 4, 6-(3-Butyl-5-methyl-isoxazol-4-ylmethoxy)-pyridazine-3-carboxylic acid (2-hydroxy-2-methyl-propyl)-amide]",17.3
5,"CCCCc1noc(C)c1COc1ccc(C(=O)N[C@@H](C)CO)nn1 [Example 5, 6-(3-Butyl-5-methyl-isoxazol-4-ylmethoxy)-pyridazine-3-carboxylic acid ((S)-2-hydroxy-1-methyl-ethyl)-amide]",17.3
6,"CCCCc1noc(C)c1COc1ccc(C(=O)N[C@H]2CCOC2)nn1 [Example 6, (S)-6-(3-Butyl-5-methyl-isoxazol-4-ylmethoxy)-pyridazine-3-carboxylic acid (tetrahydro-furan-3-yl)-amide]",8.6

# Results, then the compound that gave them:
row,Ki [nM],Structure (SMILES)
1,6.9,"CCCCc1noc(C)c1COc1ccc(C(=O)NC2CCOC2)nn1 (racemic) [Example 8, Rac-6-(3-Butyl-5-methyl-isoxazol-4-ylmethoxy)-pyridazine-3-carboxylic acid (tetrahydro-furan-3-yl)-amide]"
2,10.4,"CCCCc1noc(C)c1COc1ccc(C(=O)NC(C)CO)nn1 (stereo not drawn) [Example 7, 6-(3-Butyl-5-methyl-isoxazol-4-ylmethoxy)-pyridazine-3-carboxylic acid (2-hydroxy-1-methyl-ethyl)-amide]"
3,7.3,"CCCCc1noc(C)c1COc1ccc(C(N)=O)nn1 [Example 9, 6-(3-Butyl-5-methyl-isoxazol-4-ylmethoxy)-pyridazine-3-carboxylic acid amide]"

# From patent US8410104B2, “Pyridazines” (Hoffmann-La Roche Inc., priority 2009, dated 2013)
